This note sets out measurements from patent US8598177B2, “Imidazopyridazines as PAR1 inhibitors, production thereof, and use as medicaments” (Sanofi, priority 2008, dated 2013).

Counter-ions that a name gives are not always drawn.

What is called IC50 is the midpoint of a concentration-inhibition curve. Low readings indicate inhibition by little substance, high ones a need for much substance.

This assay addresses T1, PAR1 (Homo sapiens, UniProt P25116).
T1 construct: endogenous in cells; host or cells: washed platelets prepared from platelet-rich plasma of healthy volunteer donors
T1 sequence (P25116 22-425): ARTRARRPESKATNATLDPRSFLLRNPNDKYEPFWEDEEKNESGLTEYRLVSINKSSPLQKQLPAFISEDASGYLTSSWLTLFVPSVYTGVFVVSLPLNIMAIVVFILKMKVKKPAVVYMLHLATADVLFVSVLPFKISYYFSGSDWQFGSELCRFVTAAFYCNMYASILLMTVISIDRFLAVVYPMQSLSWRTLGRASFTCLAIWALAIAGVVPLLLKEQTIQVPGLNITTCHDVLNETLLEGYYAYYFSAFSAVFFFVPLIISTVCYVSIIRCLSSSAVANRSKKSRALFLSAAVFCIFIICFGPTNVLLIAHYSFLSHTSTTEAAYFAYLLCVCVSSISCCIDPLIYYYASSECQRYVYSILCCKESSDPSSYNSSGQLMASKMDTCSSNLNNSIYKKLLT
The assay is described as follows: Inhibition of PAR1-mediated platelet aggregation induced by TRAP. As to conditions: washed platelets from healthy volunteer donors, TRAP (70-100 μM solution) as agonist, 96-well format, AUC at 650 nm, 37° C., 20 minutes. Format: cell-based. On the procedure:
PAR1 Determination Method: Inhibition of PAR1-Mediated Platelet Aggregation
The pharmacological testing of the substances took place in platelet aggregation induced by TRAP (thrombin receptor-activating peptide) in 96-well format. For this purpose, blood was taken from healthy volunteer donors in 20 ml syringes containing 2 ml of 3.13% sodium citrate solution. After centrifugation at 150×g for 20 minutes, the platelet-rich plasma (PRP) was separated off and mixed with 1 μl of PGE1 solution (500 μg/ml in ethanol)/ml of PRP. Incubation at room temperature for 5 minutes was followed by centrifugation at 120×g for 15 minutes to remove the leukocytes. The leukocyte-free PRP was transferred in 5 ml portions into 15 ml PP tubes and centrifuged at 360×g for 15 minutes in order to pellet the platelets. The plasma was then decanted off and the platelet sediment from 5 ml of PRP was resuspended in 1 ml of Tyrode's (120 mM NaCl, 2.6 mM KCl, 12 mM NaHCO3, 0.39 mM NaH2PO4×H2O, 10 mM HEPES, 0.35% BSA, 5.5 mM glucose, pH 7.4) and adjusted with Tyrode's to a platelet count of 3×10^5/microliter (4). 13 ml of this cell suspension were then mixed with 866 μL of 10 mM CaCl2 solution, and 120 μL thereof were pipetted into each well of a 96-well plate containing 15 μL of the substance to be tested. After incubation at room temperature in the dark for 30 minutes, 15 μL of a TRAP solution (70-100 μM) were added as agonist, and kinetics were recorded at 650 nm in a SpectraMax 340 at 37° C. for 20 minutes while shaking. The areas under the curves of negative control (Tyrode's/DMSO) and positive control (15 μl of agonist/DMSO) were calculated and the difference was fixed as the 100% value. The substances to be tested were pipetted as serial dilutions in duplicate determination, the AUC was likewise determined for each substance concentration, and the % inhibition of the AUC compared with the control was calculated. On the basis of the % inhibition, the IC50 was calculated by nonlinear regression analysis according to the 4-parameter equation.

The compound `CCOc1cc2cn(CC(=O)c3cc(NC(C)=O)cc(S(F)(F)(F)(F)F)c3)c(=N)n2nc1OCC` [Example 1, trifluoroacetic acid salt] displayed an IC50 of 5 nM.

`CCOc1cc2cn(CC(=O)c3cc(N4CCOCC4)c(OC)c(C(C)(C)C)c3)c(=N)n2nc1OCC` [Example 3, 1-(3-tert-Butyl-4-methoxy-5-morpholin-4-ylphenyl)-2-(2,3-diethoxy-7-iminoimidazo-[1,5-b]pyridazin-6-yl)ethanone as trifluoroacetic acid salt] yielded a half-inhibitory concentration (IC50) of 4 nM.

The compound `COc1nn2c(=N)n(CC(=O)c3cc(N4CCOCC4)c(OC)c(C(C)(C)C)c3)cc2cc1OCC(F)(F)F` [Example 4, 1-(3-tert-Butyl-4-methoxy-5-morpholin-4-ylphenyl)-2-[7-imino-2-methoxy-3-(2,2,2-trifluoroethoxy)imidazo[1,5-b]pyridazin-6-yl]ethanone as trifluoroacetic acid salt] returned an IC50 of 180 nM.
